Measured values taken from ChEMBL document CHEMBL3301546, “MMV Malaria Box yeast growth screening”.

Key:
Assay type in all cases: functional
Saccharomyces cerevisiae [1] = experiment: MMV: Growth assays were conducted using the prototrophic S. cerevisiae strain JHY222. Each MMV compound (0.1 mM) was tested in minimal media containing ethanol and glycerol as carbon sources (Yeast Nitrogen Base, Ethanol, Glycerol; YNBEG). The growth rate in the presence of each MMV compound was calculated as follows: (i) the first 10 OD readings were averaged and subtracted from all OD readings of the corresponding curve to set the baseline of the growth curve to zero, and (ii) the area under the curve (AUC) was then calculated as the sum of all OD readings. […] A relative growth value was calculated as follows: AUC(DRUG) - AUC(DMSO)/AUC(DMSO); where AUC(DMSO) represents growth measured in a DMSO control well that was on the same microtiter plate of the drug-treated culture.
Saccharomyces cerevisiae [2] = experiment: (§1) MMV: Growth assays were conducted using the prototrophic S. cerevisiae strain JHY222. Each MMV compound (0.1 mM) was tested in minimal media containing dextrose as a carbon source (Yeast Nitrogen Base, Dextrose; YNBD). The growth rate in the presence of each MMV compound was calculated as follows: (i) the first 10 OD readings were averaged and subtracted from all OD readings of the corresponding curve to set the baseline of the growth curve to zero, and (ii) the area under the curve (AUC) was then calculated as the sum of all OD readings. […] A relative growth value was calculated as follows: AUC(DRUG) - AUC(DMSO)/AUC(DMSO); where AUC(DMSO) represents growth measured in a DMSO control well that was on the same microtiter plate of the drug-treated culture.
Saccharomyces cerevisiae [3] = experiment: as §1, with “rich” for “minimal”, “Extract, Peptone,” for “Nitrogen Base,”, “YPD).” for “YNBD).”

| SMILES | Relative Growth (Saccharomyces cerevisiae [1]) | Relative Growth (Saccharomyces cerevisiae [2]) | Relative Growth (Saccharomyces cerevisiae [3]) |
| --- | --- | --- | --- |
| CSC1=NC(=Nc2c(C)cccc2C)C2(CCC(C(C)(C)C)CC2)N1c1ccc(Cl)cc1 (stereo not given) | 0.0048 | 0.0233 | -0.0962 |
| O=C(NCC(c1ccsc1)N1CCCCCC1)c1ccc(C(F)(F)F)cc1 (stereo not given) | 0.0335 | 0.0719 | -0.0232 |
| CCN(CC)CCNc1ncnc2c1[nH]c1ccc(Cl)cc12 | 0.0317 | 0.0885 | -0.0494 |
| CCOC(=O)c1cnc2ccc(CC)cc2c1O | -0.0424 | 0.0544 | -0.243 |
| COc1ccc(-c2nc(NC(=O)CS(=O)(=O)c3ccc(F)cc3)sc2C)cc1 | 0.1484 | 0.0372 | 0.0127 |
| CCC(c1ccccc1)c1nn2c(-c3cccs3)nnc2s1 (stereo not given) | 0.1287 | 0.0181 | -0.0182 |
| CC(C)(C)c1ccc(O)c(CNC2CCCCC2)c1 | -0.0737 | 0.1031 | -0.013 |
| CC1CN(C(=O)c2sc3ccccc3c2Cl)CC(C)O1 (stereo not given) | -0.1107 | 0.0985 | -0.0005 |
| CN(C)c1ccc(C=Cc2nc(=O)c3ccccc3o2)cc1 | 0.0299 | -0.0045 | -0.0054 |
| COc1ccc(C2=C(c3ccc(OC)cc3)C3(c4ccccc4)C(=O)C2(c2ccccc2)C2C(=O)N(c4ccc(C)cc4)C(=O)C23)cc1 (stereo not given) | -0.0687 | -0.018 | 0.0057 |
| CCC1(C)CC(CCNCc2ccccc2O)(c2ccc(C)cc2)CCO1 (stereo not given) | 0.156 | 0.0584 | 0.0044 |
| OC(CNC1CCCCC1)Cn1c2ccccc2c2ccccc21 (stereo not given) | 0.1093 | 0.0533 | -0.0297 |
| Fc1ccc2[nH]c3c(NCCCN4CCOCC4)ncnc3c2c1 | 0.0735 | 0.0125 | -0.0189 |
| CC(NCc1ccccc1)c1cc(Cl)ccc1O (stereo not given) |  | 0.042 | -0.0386 |
| COc1ccc(NC(=O)C2c3ccccc3C(=O)N(CC(C)C)C2c2cccs2)cc1Cl (stereo not given) | -0.0036 | 0.0154 | -0.1808 |
| COc1ccccc1CNC(=O)CCn1c(=O)[nH]c2ccccc2c1=O | 0.058 | 0.0763 | -0.0038 |
| CCCc1cc(O)c2c3c(c(=O)oc2c1)CN(C)CC3 | -0.0215 | -0.0292 | -0.0062 |
| Cc1cc(NC(=O)C2c3ccccc3C(=O)N(CC(C)C)C2c2cccs2)no1 (stereo not given) | -0.0882 | -0.0434 | -0.03 |
| Cl.Oc1ccccc1CNCC12CC3CC(CC(C3)C1)C2 | 0.0858 | 0.0701 | -0.0154 |
| O=C(Nc1ccsc1C(=O)NC1CCCCC1)c1ccc(F)cc1 |  | 0.1187 | -0.9286 |
| CCOc1ccc(-c2nonc2NC(=O)c2cccc(C)c2)cc1OCC | -0.1269 | 0.0895 | 0.0084 |
| COc1ccc(-c2nc3cc(Cc4ccc5[nH]c(-c6ccc(OC)cc6)nc5c4)ccc3[nH]2)cc1 | 0.0241 | 0.0862 | -0.0264 |
| COc1ccc(C(C)=O)cc1N1C(=O)C2C(C1=O)C1(c3ccccc3)C(=O)C2(c2ccccc2)C(c2ccc(C)cc2)=C1c1ccc(C)cc1 (stereo not given) | 0.0688 | -0.0144 | -0.992 |
| Cc1ccc(Nc2nc(NCCO)c3ccccc3n2)cc1C | 0.0228 | 0.0139 | -0.1142 |
